Laboratory results as given in patent publication US20250200763A1, “4D FLUORESCENCE MICROSCOPY ORGANELLE NETWORK TRACKING” (THE REGENTS OF THE UNIVERSITY OF CALIFORNIA, priority 2022, published 2025).
Entries after “also recorded” stand apart in the source; their conditions may differ.

How the values were obtained:
[1] = test system: mitochondrial network in hiPSCs; assay: Mitochondrial temporal network remodeling (mean degree difference, temporal intersection) from MitoTNT 4D tracking of LLSM data; assay type: cell-based, human; details: drug-treated; for mean degree difference (DD): control DD 0.28, low DD = little remodeling; for temporal intersection (TI): control TI 0.58, low TI = drastic remodeling
Protocol: To quantify mitochondrial network remodeling, the mean degree difference (DD) and the temporal intersection (TI) were calculated. A low DD indicates a low rate of nodes breaking off from their neighbors and reconnecting with other nodes. Inversely, a low TI implies that the network is very dynamic and does undergo drastic remodeling. […] In contrast, when treated with oligomycin, it was observed a 0.52 DD and 0.44 TI indicating a high level of network remodeling. Cytoskeleton influences drive network remodeling events were hypothesized.
Human induced pluripotent stem cell (hiPSC) culture: All studies involving hiPSCs were performed under approval from the University of California San Diego IRB/ESCRO committee. WTC hiPSCs expressing the CAAX domain of K-ras tagged with m TagRFP-T were created at the Allen Institute for Cell Science and obtained through the UCB Cell Culture Facility. hiPSC colonies were expanded on dishes coated with growth factor reduced Matrigel (Corning, 354230) in mTeSR1 (Stemcell Technologies, 85850) containing 1% penicillin/streptomycin (Gibco, 15140122). Colonies were washed with DPBS (Gibco, 14190144) and detached with accutase (Stemcell Technologies, 07920) before plating onto imaging dishes. Cultures were tested routinely for mycoplasma.
Drug Treatments: All drugs were dissolved in DMSO to make a stock solution and diluted in PBS to prepare a 100× working stock. Cells were treated with oligomycin (20 μM, 2 hr), nocodazole (5 uM, 30 min), and MDIVI-1 (10 μM, 12 hr) without wash.
Live cell imaging: 371 CAAX-RFPhiPSCs were stained with 100 nM Mito Tracker Green FM (Invitrogen, M7514) for 30 min prior to imaging. Cells were plated onto 25 mm MatTek dishes and imaged in phenol-red free mTeSR1 (Stemcell Technologies, 85850). Cells were kept under 5% CO2 and 37 degrees C. For imaging, Zeiss LLSM 7 was used with 10×N.A. 0.4 illumination objective lens and 48×375 N.A. 1.0 detection objective lens. Images were acquired in two channels: green channel with excitation at 488 nm and emission at 512 nm; red channel with excitation at 561 nm and emission at 597 nm. For both channels we used 18% laser power and 8 ms exposure. The illumination light-sheet was the Sinc3 beam with length 15 μm, thickness 650 nm and no side lobes. The volume size was 2048×448×57 pixels or 296.94×64.96×8.12 μm with isotropic pixel size 145 nm after coverglass transformation. Images were saved with bit depth 16 bits. For each region, 93 frames were imaged with frame rate 3.26 s per volume for total 5 min. For LLSM data processing, the Lattice Lightsheet 7 Processing Module on ZEN Blue was used for deconvolution, deskew, and cover glass transformation. Further processing is then done using MitoGraph and MitoTNT.

[2] = test system: mitochondrial network in hiPSCs; assay: Network reachability: random walk / material diffusion simulation on tracked temporal mitochondrial networks; assay type: cell-based, human; details: drug-treated, control 0.18
Protocol: To quantify transport across the 4D mitochondrial network, a random walk on the tracked temporal mitochondrial networks was simulated and the process was measured in the form of network reachability (see “Material diffusion simulation on temporal mitochondrial networks”). Reachability for a node indicates how easily can material/information reach this node from various parts of the overall network, via the time respecting paths defined by the network tracking.
Diffusion simulation was used on temporal dynamic mitochondrial network to understand the flow of material in mitochondrial networks. To calculate global reachability, we initiate a virtual token at every node of the mitochondrial network at the first timestep. Each token is labeled by the source node from which it originated. At every timestep, each node duplicates the tokens it currently has, and transfers them to the connected neighbors. At the end of the simulation, the global reachability for each node is quantified by the number of unique tokens at that node, corresponding to the number of source nodes this node can reach.
FIGS. 25A and 25B illustrate schematics for material diffusion simulation on temporal network. FIG. 25A illustrates the global reachability simulation. From each node, material can diffuse into the neighboring nodes or stay in the source node. All possible diffusion pathways over time are marked with an arrow. Time is depicted from left to right. Arrows in different thicknesses 2502, 2504, 2506, 2508, 2510, 2512 indicate representative simulation scenarios. After four timesteps, the target node labeled with X has accumulated three tokens (through the transport arrows). FIG. 25B illustrates the calculation for betweenness centrality used for determining the central nodes.
Drug Treatments: All drugs were dissolved in DMSO to make a stock solution and diluted in PBS to prepare a 100× working stock. Cells were treated with oligomycin (20 μM, 2 hr), nocodazole (5 uM, 30 min), and MDIVI-1 (10 μM, 12 hr) without wash. […]

[3] = test system: mitochondrial network in hiPSCs; assay: Fission/fusion preference with respect to fragment size (normalized network fragment size difference); assay type: cell-based, human; details: hiPSCs with disrupted microtubules, vs DMSO control
Protocol: To detect fission and fusion events in the network, a sliding-window approach is applied to identify nodes that undergo persistent structural changes as opposed to transient segmentation variations. First, the fragment indices for each node are recorded for the half win size frames before and after the current frame, to form the fragment list. Second, for each network edge, the fragment lists for the connected nodes are compared. Fission will be declared if the fragment lists before the current frame are strictly identical, as well as the fragment lists after the current frame are strictly non-overlapping. Since fusion events can be considered as fission events reversed in time, the opposite criterion is used for fusion detection. In the case that multiple remodeling nodes are located in proximity (less than 5 edges away), the nodes are grouped into a single fission/fusion site. At last, the center of the sliding window is moved to the next frame and the computation is iterated.
To provide mechanistic insights into network remodeling, the motility between randomly selected nodes and nodes undergoing fission and fusion was compared. […] Based on node tracking, each individual mitochondrial network fragment can be tracked as shown in FIG. 17C and the selectivity of fission and fusion events recorded in terms of fragment size. […]

[4] = test system: mitochondria networks in cells; assay: Distribution of graph size ratio for fission/fusion events (preliminary 4D network tracking); assay type: cell-based; details: microtubule-disrupted cells vs DMSO control cells
Protocol: Preliminary results. 4D mitochondrial network tracking and fission/fusion statistics analysis indicate a selection bias in fission and fusion reaction in normal cells, which is not present when cells are treated with nocodazole. FIGS. 3A and 3B show data plots depicting a distribution of graph size ratio for fission/fusion events. Depicted is the normalized mitochondria fragment size immediately after or before fission or fusion events, respectively. Graph size ratio for a particular mitochondria undergoing fission/fusion computed as the size of the mitochondria network normalized by the total size of all mitochondria networks involved. Values close to 0 and 1 correspond to small and large mitochondria relative to the total size. The metric is calculated and plotted for every fragment undergoing detected fission/fusion events. FIGS. 3A and 3B illustrate histogram bars and gaussian-smoothed curves for fission and fusion. The gaussian-smoothed curves 310 and 330 are for fission and the gaussian-smoothed curves 320 and 340 are for fusion.

[5] = test system: mitochondrial network in hiPSCs; assay: Mitochondrial network motility and motion correlation analysis by node tracking; assay type: cell-based, human
Source text: To measure the network motility of the mitochondrial network, mean-square-displacements (MSDs) vs. time delay curves are computed following previous works. The node ensemble averaged MSDs are plotted for control and oligomycin (See FIGS. 24A and 24B). The MSDs for single tracks are plotted for control and oligomycin (See FIGS. 24C and 24D). Around 80% of the nodes have a coefficient of determination for linear fit greater than 0.8 (see FIG. 15F). To map diffusivity onto mitochondrial nodes, the network nodes are firstly chosen at a center frame. Next, the node track coordinates 10 frames before and 10 frames after the center frame are collected. In a last step, the MSDs are computed at various time delays in this time window to determine the diffusivity of each node.
To compute vector correlation, the displacement vector is firstly obtained for a selected node at a selected frame. Next, the vector correlation is computed, as well as the vectors for the selected node at timepoints 1 frame before and after the selected frame. The vector correlation is computed between this vector and vectors for the nodes directly connected to it and given by the dot product of two vectors, divided by the square of the norm of the longer vector. The final correlation value for the selected node at the selected time is reported as the average of these two values.
To further investigate network branch motility, tracking vectors correlated between adjacent nodes on the same segment, and between the same node at consecutive frames. […] In contrast, temporal correlation between frames is predominantly zero (random motion) to slightly negative (oscillating motion), while interspersed with short period of positive values (directional motion) as shown in FIG. 16E. […] In FIG. 16F, the correlation along skeleton 1610 and the correlation in time 1620 are shown. The ATP synthase inhibitor oligomycin that induces mitochondrial fragmentation was employed to investigate if motion correlation findings are dependent upon network morphologies as shown in FIGS. 16G and 16H. […]

Structure (SMILES)	mean degree difference (DD) [1]	temporal intersection (TI) [1]	average reachability of network nodes [2]	asymmetric fission/fusion events [3]	distribution of graph size ratio for fission/fusion events (selection bias) [4]	motility of drug induced fragments ([5]; vs DMSO control)	spatial motion correlation (along skeleton) ([5]; vs control)	temporal motion correlation (between frames) ([5]; vs control)
COC(=O)Nc1nc2ccc(C(=O)c3cccs3)cc2[nH]1 [nocodazole]	did not induce drastic changes	did not induce drastic changes	0.29	less pronounced but preserved; also recorded: a decrease in asymmetric fission/fusion	not present; also recorded: flatter distribution			
CC[C@H]1/C=C/C=C/C[C@@H](C)[C@H](O)[C@@](C)(O)C(=O)[C@@H](C)[C@H](O)[C@@H](C)C(=O)[C@@H](C)[C@H](O)[C@@H](C)/C=C/C(=O)O[C@@H]2[C@H](C)[C@H](CC1)O[C@]1(CC[C@H](C)[C@H](C[C@@H](C)O)O1)[C@H]2C [oligomycin]	0.52	0.44	0.64			move considerably faster compared to control	dropped	remains similar
COc1cc(-n2c(=S)[nH]c3ccccc3c2=O)c(Cl)cc1Cl [mdivi-1]			0.35					
